Patent US9018216B2, “Solid forms of (R)-2-(5-(2-(3-ethylureido)-6-fluoro-7-(tetrahydrofuran-2-yl)-1H-benzo[d]imidazol-5-yl)pyrimidin-2-yl)propan-2-yl dihydrogen phosphate and salts thereof” (priority 2012, dated 2015)
Counter-ions that a name gives are not always drawn.

How the values were obtained:
[1] = tested on: M. tuberculosis Erdman ATCC 35801; assay: Mycobacterium tuberculosis serum shift MIC assay (Protocol 5); assay type: cell-based
[2] = Seven-day oral (gavage) toxicity and toxicokinetics study in rats; assay type: in vivo, Crl:CD(SD) rats; settings: for Mean food consumption: Compound 13 once daily 100 or 200 mg/kg, Compound 23A twice daily 300 mg/kg, different intervals of the study, not considered adverse; for adverse observations or effects on mean body weight / dose levels without adverse toxicity within the scope of the study / NOEL (No-Observable-Effect-Level) / exposures for different dosage levels: male rats; for adverse observations or effects on mean body weight / dose levels without adverse toxicity within the scope of the study: 7 days oral gavage; for NOEL (No-Observable-Effect-Level): once a day for 7 days orally via gavage; for exposures for different dosage levels: oral gavage, toxicokinetics; for histopathological findings: any dose regimen
Text: Crl:CD(SD) rats were obtained from Charles River Laboratories of Stone Ridge, N.Y. The animals were laboratory bred and experimentally naïve. Rats were chosen because they are a species that is commonly used for nonclinical toxicity evaluations.
Forty rats (20 noncannulated males and 20 males with jugular vein cannulas) were ordered. From these animals, 15 noncannulated males and 15 cannulated males were used. Animals were as uniform in age as possible. The rats were prepubertal to young adult, approximately 9 weeks of age at initiation of dosing. Their supplier-calculated birth date was retained in the study records. The weight range for the animals at the time of allocation to groups was 218.5-306.3 g.
Animals received the test article or vehicle by oral gavage for 7 consecutive days and were terminated the day following completion of dosing. The first day of dosing was designated as Day 1 of the study. The animals were evaluated for changes in clinical signs, body weight, and other parameters as described below.
The vehicle and test article were administered by oral gavage once daily for 7 consecutive days at a dose volume of 10 mL/kg body weight for Group A and Groups B-D, respectively. The test article and vehicle were administered by oral gavage twice daily, approximately 8 hours apart, for 7 consecutive days at a dose volume of 10 mL/kg body weight for Group E and Group F, respectively. The actual volume administered to each animal was calculated and adjusted based on the most recent body weight of each animal.
During the treatment period, daily cageside observations were made and recorded predose and postdose (following the first dose only). The postdosing observations made during treatment occurred at the following times based on Cmax/Tmax for the two compounds from previous studies:
Prior to start of dosing, body weights were measured for randomization on Day 1. During the treatment, body weights were measured on Day 1 and Day 7. In addition, fasted body weights were measured prior to necropsy for calculation of organ/body weight ratios.
Throughout the study, food consumption was measured daily starting 3 days prior to start of dosing.
Blood samples for evaluation of hematology, coagulation, and serum chemistry parameters were collected from all animals from the retro-orbital plexus (under CO2/O2 anesthesia, for the main study animals) or jugular vein cannula (for the toxicokinetic animals) prior to necropsy. Due to residual heparin used to keep the cannulas patent for the toxicokinetic animals, coagulation samples from these rats, were not able to be analyzed. The animals were fasted overnight prior to blood collection. On the day of blood collection for clinical pathology analyses, the animals were not necropsied until after the blood was collected and the samples judged to be acceptable by the clinical pathology group.
On the 1st and 7th day of dosing, blood samples (approximately 0.5 mL/sample) were collected from the jugular vein cannula for all toxicokinetic animals at the timepoints listed below into K3EDTA-containing tubes. […] Prior to each collection, a small sample of blood (with heparin blocking solution) was removed from the cannula and discarded. A new syringe was placed on the cannula, and the protocol-required sample was taken. The syringe with the blood sample was removed, and a new syringe with saline attached to the cannula. Blood volume was replaced with an equal volume of saline and then blocking solution placed in the cannula. Each animal was returned to its cage until the next collection timepoint.
For all animals euthanized at scheduled necropsies, the kidneys, liver, and prostate gland were weighed. Following weighing, an approximate 1 gram sample of liver and kidney was weighed, transferred to Precellys 7 mL CK28 Tissue Homogenizing tubes (Cat. No. 0904-01), snap-frozen, and analyzed. […]

[3] = tested on: M. tuberculosis ATCC 35801 (strain Erdman); assay: Mouse M. tuberculosis (Erdman) 28 day lung infection model; assay type: in vivo, M. tuberculosis; host Balb/c mice; settings: 28 days; for Average Lung Burden / Log Reduction vs. Early Control / Log Reduction vs. Late Control: Table 23a
[4] = M. tuberculosis Erdman ATCC 35801
[5] = M. tuberculosis Erdman ATCC 35801 with Mouse Serum
[6] = rats, 300 mg/kg twice a day, compared to controls treated twice a day

Row | Structure (SMILES) | MIC [1, 4] | MIC [1, 5] | Mean food consumption [2] | adverse observations or effects on mean body weight [2] | dose levels without adverse toxicity within the scope of the study [2] | NOEL (No-Observable-Effect-Level) [2] | exposures for different dosage levels [2] | histopathological findings ([2]; rats) | further results
1 | CCNC(=O)Nc1nc2cc(-c3cnc(C(C)(C)O)nc3)cc([C@H]3CCCO3)c2[nH]1 [Compound 13, 1-ethyl-3-[5-[2-(1-hydroxy-1-methyl-ethyl)pyrimidin-5-yl]-7-[(2R)-tetrahydrofuran-2-yl]-1H-benzimidazol-2-yl]urea] | 0.045 µg/mL | 2 µg/mL | reduced | No adverse observations or effects on mean body weight | up to 200 mg/kg/day | 200 mg/kg | dose related | No test article-related histopathological findings | 
2 | CCNC(=O)Nc1nc2cc(-c3cnc(C(C)(C)O)nc3)c(F)c([C@H]3CCCO3)c2[nH]1 [Compound 23A, methanesulfonic acid salt of 1-ethyl-3-[6-fluoro-5-[2-(1-hydroxy-1-methyl-ethyl)pyrimidin-5-yl]-7-[(2R)-tetrahydrofuran-2-yl]-1H-benzimidazol-2-yl]urea] | 0.03 µg/mL | 0.5 µg/mL | reduced | No adverse observations or effects on mean body weight | ≤ 600 mg/kg/day | 100 mg/kg | dose related | No test article-related histopathological findings | AST [2, 6]: statistically higher; mean ALT [2, 6]: statistically higher; mean calcium ion concentration (CA) [2, 6]: statistically lower; Average Lung Burden ([3]; 10 mg/kg BID oral gavage): 5.08 Log cfu/lungs; Log Reduction vs. Early Control ([3]; 10 mg/kg BID oral gavage): −0.10 Log; Log Reduction vs. Late Control ([3]; 10 mg/kg BID oral gavage): 0.13 Log; Average Lung Burden ([3]; 30 mg/kg BID oral gavage): 4.11 Log cfu/lungs; Log Reduction vs. Early Control ([3]; 30 mg/kg BID oral gavage): 0.86 Log; Log Reduction vs. Late Control ([3]; 30 mg/kg BID oral gavage): 1.09 Log; Average Lung Burden ([3]; 100 mg/kg BID oral gavage): 3.22 Log cfu/lungs; Log Reduction vs. Early Control ([3]; 100 mg/kg BID oral gavage): 1.76 Log; Log Reduction vs. Late Control ([3]; 100 mg/kg BID oral gavage): 1.98 Log; reduction of bacterial burdens versus the early control ([3]; doses of 30 and 100 mg/kg): 0.7-1.5 logs
